Two molecules from patent US20040248919A1, “Fluorinated trienes and their use as rxr modulators” (priority 2001, published 2004) can be followed below.

The test system of data set [1] is transgenic mice carrying the human apo A-I gene. Put plainly: Transgenic mice carrying the human apo A-I gene. It is filed as in vivo. To be noted: transgenic mouse model. The text has this:
Mice transgenic for the human apolipoprotein A-I gene (obtained from Jackson Laboratory) are used to evaluate PPARγ mediated effects on high density lipoprotein (HDL) cholesterol. The mice are handled as described above for db/db mice, except that they are fed Purina 5001.

The test system of a further data set is rodent models of NIDDM. Put plainly: Rodent models of NIDDM. The class given is in vivo. The text has this: Rodents that are genetically defective in the leptin pathway are commonly used as animal models of non-insulin dependant diabetes mellitus (NIDDM). db/db mice and ZDF rats develop frank diabetes that progresses to include β-cell failure and the accompanying precipitous drop in plasma insulin levels. […] All three rodent models were used to examine the efficacy of oral dosing with compounds of the invention on diabetes, insulin sensitivity, food consumption and body weight gain.
Mice (obtained from Jackson Laboratory), ZDF rats (obtained from Genetic Models Inc.) and fa/fa rats (obtained from either Charles River, or Harlan) are maintained on 12-hour light/dark cycle. Mice (age 28-42 days) are caged in groups of 5-6. Rats (age 7 weeks) are housed individually. All animals are allowed ad libitum access to water and food (Purina 5015 for mice and 5008 for rats). Compounds are administered at the specified doses by oral gavage on the morning of each day of any experiment. Blood samples are obtained 3 hours after dosing from fed animals under anesthesia and collected into heparinized capillary tubes from the tail vein.

The next data set has as its system db/db mice. Put plainly: db/db mice, oral dosing. It is filed as in vivo, mouse. Particulars: 7 week old db/db mice, 300 mg/kg by daily oral gavage.

Turning to `Cc1cc2c(cc1C1(c3ccc(C(=O)O)cn3)CC1)C(C)(C)CCC2(C)C` [LG100268, 6-[1-(3,5,5,8,8-pentamethyl-5,6,7,8-tetrahydronaphthalen-2-yl)cyclopropyl]nicotinic acid], the Triglycerides result in data set [1] was “raises triglycerides”. Besides, in the data set with rodent models of NIDDM, the Blood glucose levels result is “lower blood glucose levels”, the Thyroid hormone axis result is given as “suppress the thyroid hormone axis” and the Triglycerides entry was “raise triglycerides”.

On to `CN(C)C(=N)N=C(N)N` [metformin], for which the Plasma glucose result with db/db mice is reported as “lowers plasma glucose”.
